Consider two compounds from patent US7385051B2, “Fluorescent N2,N3-etheno-purine (2′-deoxy) riboside derivatives and uses thereof” (Bar-llan University, priority 2005, dated 2008).

Experiment [1] addresses T1, NTPDase2 (Homo sapiens, UniProt Q9Y5L3).
T1 sequence (Q9Y5L3 1-495): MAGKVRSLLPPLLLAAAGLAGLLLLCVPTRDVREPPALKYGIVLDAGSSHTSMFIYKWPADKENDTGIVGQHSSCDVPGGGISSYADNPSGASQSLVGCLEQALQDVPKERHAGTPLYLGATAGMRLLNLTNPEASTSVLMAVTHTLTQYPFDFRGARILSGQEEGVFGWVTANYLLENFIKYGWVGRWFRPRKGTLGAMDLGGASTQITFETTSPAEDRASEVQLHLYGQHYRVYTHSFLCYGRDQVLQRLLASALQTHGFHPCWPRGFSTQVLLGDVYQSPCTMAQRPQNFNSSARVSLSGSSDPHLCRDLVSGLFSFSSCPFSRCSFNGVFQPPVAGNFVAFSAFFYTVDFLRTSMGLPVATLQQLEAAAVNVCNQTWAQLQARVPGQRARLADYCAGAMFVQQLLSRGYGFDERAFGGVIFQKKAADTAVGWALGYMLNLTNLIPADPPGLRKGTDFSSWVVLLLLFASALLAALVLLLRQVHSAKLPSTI
Nature of the experiment: Fluorescence spectra of the nucleotide with and without NTPDase2. Type of experiment: biochemical. The conditions noted are these: 200 μM nucleotide, excitation at 290 nm. Also on record: made in house; host or cells: COS-7 cells (transfected; lysate used as enzyme). The source says:
Next, we tested whether N^2,N3-ε-A is suitable for probing ectonucleotidases. […] For this purpose, we measured the fluorescence spectra of 30a and its monophosphate homologue with and without human NTPDase2. We observed that the fluorescence intensity of the nucleotide decreased by ca. ⅓ upon the addition of the enzyme (not shown). This observation is consistent with the lower dielectric constant (polarity) of the protein as compared to that of the aqueous solution. Fluorescence intensity of the bound nucleotide, although lowered, still enables the application of this nucleotide as a fluorescent probe.
For the fluorescence studies of 30a-NTPDase2 complex, emission spectra of 30a and its monophosphate homologue, 30a′, were measured in the presence of human NTPDase2 using an Aminco-Bowman series 2 Luminescence Spectrometer. Measurement conditions included: 740-780 V sensitivity, 37° C. and excitation at 290 nm. The concentration of the samples was of the order of 2×10^−4 M in the NTPDase incubation mixture. Measurements of the emission spectra were performed in 1.5 ml of 200 μM 30a and 30a′, without enzyme. Enzyme was added (3.6 μg of transfected COS-7 cells lysate), then, emission spectra were measured at 5 min intervals. […]

For a further experiment, the target named is T2, rat brain P2Y1-receptor (Rattus norvegicus, UniProt P49651).
T2 construct: expressed in transfected cells
Briefly: Agonist-induced Ca2+ release in HEK 293 cells stably transfected with P2Y1-receptor. Type of experiment: cell-based. The conditions noted are these: HEK 293 cells with rat brain P2Y1-receptor. From the text: To examine the efficacy of analogues 30a,d in a functional assay, we tested them by the agonist-induced Ca^2+ release in HEK 293 cells stably transfected with rat brain P2Y1-receptor (FIG. 6) (Voehringer et al., 2000). […] However, a benzyl substitution at N^6 of 30a, as in analogue 30d, reduced the ligand's potency. […] EC50 value in the range of 10^−6 M.

The target of experiment [2] is T1, NTPDase2. Nature of the experiment: Hydrolysis as substrates of NTPDase2. Type of experiment: biochemical. The conditions noted are these: substrate at 200 μM. As to the method: (§1) For evaluation of the probes as substrates/inhibitors of NTPDase1 and 2, the analogues 30a-f were evaluated as either substrates or inhibitors of NTPDase1 and 2. We tested ATP and analogues 30 as substrates of NTPDases 1 and 2 at 100 μM for NTPDase1 and 200 μM for NTPDase2. All analogues were hydrolysed by NTPDases 1 and 2. NTPDase2 hydrolysed analogues 30 better than NTPDase1. When compared to ATP, the rate of hydrolysis of all analogues was lower for NTPDase1 and mostly similar for NTPDase2 (FIGS. 7A-7B).

In a further experiment the target is T3, NTPDase1 (Homo sapiens, UniProt P49961).
T3 sequence (P49961 1-510): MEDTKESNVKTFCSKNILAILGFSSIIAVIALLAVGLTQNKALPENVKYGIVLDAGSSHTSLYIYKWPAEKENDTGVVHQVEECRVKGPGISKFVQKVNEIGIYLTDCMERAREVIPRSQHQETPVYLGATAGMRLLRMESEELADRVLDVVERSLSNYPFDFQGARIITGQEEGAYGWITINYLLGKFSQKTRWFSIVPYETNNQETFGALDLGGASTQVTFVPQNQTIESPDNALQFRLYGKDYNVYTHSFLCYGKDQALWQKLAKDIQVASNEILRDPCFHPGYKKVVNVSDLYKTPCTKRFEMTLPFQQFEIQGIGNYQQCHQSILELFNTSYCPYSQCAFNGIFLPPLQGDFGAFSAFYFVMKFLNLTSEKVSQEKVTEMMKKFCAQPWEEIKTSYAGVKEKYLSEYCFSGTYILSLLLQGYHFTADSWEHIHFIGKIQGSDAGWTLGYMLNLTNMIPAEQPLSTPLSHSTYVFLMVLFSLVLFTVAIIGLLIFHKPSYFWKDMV
Briefly: Hydrolysis as substrates of NTPDase1. Type of experiment: biochemical. Conditions: substrate at 100 μM. As to the method: as §1

Structures are written as SMILES. Entries after “also recorded” stand apart in the source; their conditions may differ.

T2 sequence (P49651 whole entry): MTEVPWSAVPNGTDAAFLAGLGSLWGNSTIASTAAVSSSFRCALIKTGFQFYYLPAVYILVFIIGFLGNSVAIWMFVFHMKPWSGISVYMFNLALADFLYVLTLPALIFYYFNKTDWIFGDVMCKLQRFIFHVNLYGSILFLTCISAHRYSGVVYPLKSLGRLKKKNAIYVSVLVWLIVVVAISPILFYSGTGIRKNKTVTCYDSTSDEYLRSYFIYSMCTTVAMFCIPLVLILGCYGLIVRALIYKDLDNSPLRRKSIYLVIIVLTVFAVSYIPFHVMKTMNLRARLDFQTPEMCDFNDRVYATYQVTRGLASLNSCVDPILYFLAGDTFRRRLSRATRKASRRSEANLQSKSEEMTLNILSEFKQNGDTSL

For `Nc1nc2nccn2c2c1ncn2C1OC(COP(=O)(O)OP(=O)(O)OP(=O)(O)O)C(O)C1O` (stereo not shown) [Compound 30a, N^2,N3-ethenoadenosine-5′-triphosphate], the “Decrease of fluorescence intensity upon the addition of the enzyme” value at NTPDase2 [1] (human NTPDase2 (3.6 μg COS-7 lysate), 37° C.) was “ca. ⅓; also recorded: lower fluorescence intensity”. Moreover, the “Shift of maximum emission upon the addition of the enzyme” value on NTPDase2 [1] (human NTPDase2, 37° C.) is reported as “does not shift”. In addition, the EC50 at rat brain P2Y1-receptor (Ca^2+ release) is ~100 nM. Also, the “Potency at P2Y1-R compared to ATP / 30a” value on rat brain P2Y1-receptor was “almost equipotent with ATP; also recorded: almost equipotent to ATP”. The “Rate of hydrolysis by NTPDase2 compared to ATP” value at NTPDase2 [2] is given as “almost equipotent to ATP”.
As to `O=P(O)(O)OP(=O)(O)OP(=O)(O)OCC1OC(n2cnc3c(N(Cc4ccccc4)Cc4ccccc4)nc4nccn4c32)C(O)C1O` (stereo not shown) [Compound 30e, N^6,N^6-Dibenzyl-N^2,N3-ethenoadenosine-5′-triphosphate], the “Rate of hydrolysis by NTPDase1 compared to ATP” value on NTPDase1 is recorded as “less efficiently than ATP”. The “Rate of hydrolysis by NTPDase2 compared to ATP” value on NTPDase2 [2] is on record as “less efficiently than ATP; also recorded: significant reduction of the affinities”.
